The values that follow come from ChEMBL document CHEMBL1137185, “Cytotoxic effects and reversal of multidrug resistance by ibogan and related indole alkaloids” (Bioorg Med Chem Lett, 2004).

Assay [1] deals with KB. Put plainly: Cytotoxic activity against vincristine-resistant human oral epidermoid carcinoma cell line (KB/VJ300). The class given is functional, cell-based.
The subject of assay [2] is KB. Put plainly: Cytotoxic activity against vincristine-sensitive human oral epidermoid carcinoma cell line(KB/S). The class given is functional, cell-based.

Converted amounts (≈) assume the structure as drawn.

Turning to `COC(=O)[C@@]12C[C@@H]3C[C@H]([C@@H](C)O)[C@@H]1N(CCc1c2[nH]c2cc(OC)ccc12)C3`, the half-maximal inhibitory concentration (IC50) with KB [1] and in the assay with KB [2] was more than 25 µg/mL in each case.
Turning to `COC(=O)[C@@]12C[C@@H]3C[C@H](C(C)(O)O)[C@@H]1N(CCc1c2[nH]c2cc(OC)ccc12)C3`, the concentration for half-maximal inhibition (IC50) (usually the concentration needed to halve the response being measured) with KB [1] was 14.5 µg/mL (≈ 36.2 µM); in the assay on KB [2], more than 25 µg/mL.
For the molecule `CCOC1[C@H]2C[C@H]([C@@H](C)O)[C@@H]3N1CCc1c([nH]c4ccccc14)[C@]3(C(=O)OC)C2` (some centres not stated), the IC50 in the assay with KB [1] and in the assay with KB [2] was more than 25 µg/mL in each case.
`CCC1C[C@H]2C[C@@]3(C(=O)OC)c4[nH]c5ccccc5c4CCN(C2=O)[C@@H]13` (some centres not stated): the IC50 with KB [1] and in the assay on KB [2] was more than 25 µg/mL in each case.
On to `CC[C@H]1C[C@H]2C[C@@]3(C(=O)OC)c4[nH]c5ccc(OC)cc5c4CCN(C2C#N)[C@@H]13` (some centres not stated), for which the IC50 stood at 7 µg/mL (≈ 17.8 µM) in the assay with KB [1] and 9.4 µg/mL (≈ 23.9 µM) with KB [2].
For `CC[C@H]1C[C@@H]2CN3CCc4c([nH]c5ccccc45)C(C)(C2)[C@H]13`, the IC50 with KB [1] and in the assay with KB [2] was more than 25 µg/mL throughout.
Regarding `COC(=O)[C@]12C[C@H]3CC4[C@H](C)OCN(CCc5c1n(c1cc(OC)ccc51)C3=O)[C@@H]42` (some centres not stated), the 50% inhibitory concentration (IC50) in the assay on KB [1] and in the assay with KB [2] was more than 25 µg/mL in each case.
In the case of `COC(=O)[C@@]12C[C@@H]3C[C@@H]([C@H](C)O)[C@@H]1NCCc1c2n(c2cc(OC)ccc12)[C@H]3O`, the IC50 in the assay on KB [1] and in the assay on KB [2] was more than 25 µg/mL in each case.
`CC[C@H]1C[C@@H]2CN3CCc4c([nH]c5ccccc45)[C@](C(=O)OC)(C2)[C@H]13` [CORONARIDINE]: the IC50 in the assay with KB [1] came to 2.6 µg/mL (≈ 7.68 µM); in the assay with KB [2], 11.5 µg/mL (≈ 34 µM).
On the same counts, the results for `CCOC1[C@H]2C[C@H](CC)[C@@H]3N1CCc1c([nH]c4ccccc14)[C@]3(C(=O)OC)C2` (some centres not stated) are 13 µg/mL (≈ 34 µM) and more than 25 µg/mL.
Regarding `CC[C@H]1C[C@H]2C[C@@]3(C(=O)OC)c4[nH]c5ccccc5c4CCN(C2C#N)[C@@H]13` (some centres not stated), the IC50 is 1.4 µg/mL (≈ 3.85 µM) in the assay with KB [1] and 2.2 µg/mL (≈ 6.05 µM) with KB [2].
Regarding `COC(=O)[C@@]12C[C@@H]3C[C@H]([C@H](C)O)[C@@H]1N(CCc1c2[nH]c2cc(OC)ccc12)C3` [ISOVOACRISTINE], the half-maximal inhibitory concentration (IC50) in the assay on KB [1] was 18.8 µg/mL (≈ 48.9 µM); with KB [2] it was more than 25 µg/mL.
Regarding `COC(=O)[C@@]12C[C@@H]3C[C@H]([C@@H](C)O)[C@@H]1N(CCc1c2[nH]c2ccccc12)C3=O`, the half-inhibitory concentration (IC50) with KB [1] and in the assay on KB [2] was more than 25 µg/mL throughout.
Consider `CC[C@H]1C[C@H](CO)C[C@@]2(C(=O)OC)c3[nH]c4ccccc4c3CCN[C@@H]12`, for which the 50% inhibitory concentration (IC50) in the assay on KB [1] and in the assay on KB [2] was more than 25 µg/mL in each case.
As to `CC[C@H]1C[C@@H]2C[C@@]3(C(=O)OC)c4c(c5ccccc5n4C2O)CCN[C@@H]13` (some centres not stated), the IC50 came out at 2.5 µg/mL (≈ 7.05 µM) in the assay with KB [1] and 3.5 µg/mL (≈ 9.87 µM) in the assay with KB [2].
With `COC(=O)N1c2ccccc2C23CCN4CCCC5(CCC12[C@](O)(C(=O)OC)C5)[C@H]43` (some centres not stated), the half-inhibitory concentration (IC50) is 0.64 µg/mL (≈ 1.55 µM) with KB [1] and more than 25 µg/mL in the assay on KB [2].
As to `CC[C@H]1C[C@@H]2CN3CCc4c([nH]c5ccc(OC)cc45)[C@](C(=O)OC)(C2)[C@H]13` [VOACANGINE], the half-inhibitory concentration (IC50) with KB [1] and with KB [2] was more than 25 µg/mL in each case.
Turning to `COC(=O)[C@@]12C[C@H]3C[C@@H](C(C)=O)[C@@H]1NCCc1c2n(c2ccccc12)C3O` (some centres not stated), the half-inhibitory concentration (IC50) in the assay on KB [1] amounted to 2 µg/mL (≈ 5.43 µM); in the assay with KB [2], 25 µg/mL (≈ 67.9 µM).
Turning to `CC[C@H]1C[C@H]2C[C@@]3(C(=O)OC)c4[nH]c5cc(OC)ccc5c4CCN(C2C#N)[C@@H]13` (some centres not stated), the IC50 in the assay on KB [1] worked out at 1.1 µg/mL (≈ 2.8 µM); in the assay with KB [2] it was 1.9 µg/mL (≈ 4.83 µM).
For `C[C@H](O)[C@H]1C[C@H]2C[C@H]3c4[nH]c5ccccc5c4CCN(C2)[C@@H]13`, the 50% inhibitory concentration (IC50) with KB [1] worked out at 7.8 µg/mL (≈ 26.3 µM); in the assay with KB [2], 16.1 µg/mL (≈ 54.3 µM).
Turning to `CC[C@H]1C[C@@H]2CN3CC[C@]4(O)C(=Nc5ccccc54)[C@](C(=O)OC)(C2)[C@H]13` [CORONARIDINE HYDROXYINDOLENINE], the concentration for half-maximal inhibition (IC50) in the assay on KB [1] and with KB [2] was more than 25 µg/mL each time.
As to `CCOC1[C@H]2C[C@H]([C@H](C)O)[C@@H]3N1CCc1c([nH]c4ccccc14)[C@]3(C(=O)OC)C2` (some centres not stated), the half-maximal inhibitory concentration (IC50) in the assay on KB [1] and in the assay on KB [2] was more than 25 µg/mL throughout.
As to `COC(=O)[C@]12C[C@H]3CC4[C@H](C)OCN(CCc5c1n(c1ccccc51)C3O)[C@@H]42` (some centres not stated), the IC50 in the assay on KB [1] came to 4 µg/mL (≈ 10.5 µM); in the assay on KB [2] it was 25 µg/mL (≈ 65.4 µM).
Regarding `COC(=O)[C@@]12C[C@@H]3C[C@H]([C@H](C)O)[C@@H]1N(CCc1c2[nH]c2ccccc12)C3`, the IC50 is 8.5 µg/mL (≈ 24 µM) with KB [1] and more than 25 µg/mL with KB [2].
Regarding `CC[C@H]1C[C@@H]2CN3CCc4c([nH]c5cc(OC)ccc45)[C@](C(=O)OC)(C2)[C@H]13` [ISOVOACANGINE], the IC50 in the assay with KB [1] and with KB [2] was more than 25 µg/mL each time.
Take `COC(=O)[C@@]12C[C@@H]3C[C@H]([C@@H](C)O)[C@@H]1N(CCc1c2[nH]c2ccccc12)C3`: the figures for the IC50 with KB [1] and with KB [2] were 3.5 µg/mL (≈ 9.87 µM) and 25 µg/mL (≈ 70.5 µM), respectively.
